Reference: patent US11141407B2, “Pharmaceutical composition for preventing or treating aids comprising rhodanine derivative” (AVIXGEN INC., priority 2018, dated 2021)
Like-named read-outs stand apart in the source and are kept apart here.

Legend:
Assay type in all cases: cell-based
[1] = system: NL43-derived HIV-1 carrying the GFP gene; conditions: p24 ELISA after 4 days; for Actually measured virus inhibitory value (%): alone, MT4 cells
Procedure: MT4 cells (a type of T cell line) were cultured in RPMI supplemented with 10% FBS and 10% antibiotics (penicillin and streptomycin). The cells were subcultured every 2 days in a humidified incubator at 37° C. and 5% CO2 for maintenance.
All viruses used for infection are NL43-derived HIV-1 carrying the GFP gene. The viral gene is recombined with the GFP gene, so that an expression rate of GFP may represent a level of viral infection. In order to identify antiviral efficacy, MT4 cells, which are a human-derived T cell line, were used. The MT4 cells were inoculated into 48-well plates at a density of 1×10^5 cells/well and infected with HIV-1 in an amount corresponding to 0.5 ng of HIV-1 p24. Treatment with mixtures to be tested for efficacy was performed simultaneously with the infection. The mixtures were prepared by mixing AVI-CO-004 with AZT, 3TC, Tenofovir, or FTC, respectively. […] Virus supernatant was collected and cell residues were removed. Then, analysis was performed. The viral production was quantified by p24 ELISA assay.
Specifically, 100,000 MT4 cells were respectively inoculated into 48-well plates and infected with HIV-1 in an amount corresponding to 0.5 ng of HIV-1 p24. Treatment with AVI-CO-004 was performed at indicated concentrations. After 4 days, an amount of viruses produced was quantified by p24 ELISA assay.
(§1) In the present experiment, antiviral efficacy of a mixture of AVI-CO-004 and AZT was identified. First, 100,000 MT4 cells were respectively inoculated into 48-well plates and infected with HIV-1 in an amount corresponding to 0.5 ng of HIV-1 p24. Treatment with a mixture of AVI-CO-004 and AZT was performed at indicated concentrations. After 4 days, an amount of viruses produced was quantified by p24 ELISA assay.
as §1, with “3TC” for “AZT”
as §1, with “TFV” for “AZT”
as §1, with “FTC” for “AZT”

[2] = system: NL43-derived HIV-1 carrying the GFP gene; conditions: alone, MT4 cells, p24 ELISA 3 days after infection
Procedure: Specifically, MT4 cells were inoculated at 1×10^5 cells into 48-well plates and infected with HIV-1 in an amount corresponding to 1 ng of p24. All viruses used for the infection are NL43-derived HIV-1 carrying the GFP gene. Together with the infection, the cells were treated with 0.5 μM, 1 μM, 2.5 μM, or 5 μM of AVI-CO-004 alone. Three days after the infection, a level of viral proliferation was identified by GFP expression using a fluorescence microscope (A of FIG. 6). Virus supernatant was collected and cell residues were removed; and HIV-1 P24 antigen ELISA assay was performed to identify a level of viral production (B of FIG. 6).
First, MT4 cells were inoculated at 1×10^5 cells into 48-well plates and infected with HIV-1 in an amount corresponding to 1 ng of p24. Together with the infection, the cells were treated with AVI-CO-004 at 0.5 μM and 1 μM in combination with 1 nM of AZT (zidovudine) and 0.5 nM of 3TC (lamivudine) fixed as basal therapeutic agents. Three days after the infection, a level of viral proliferation was identified by GFP expression using a fluorescence microscope (A of FIG. 7). Virus supernatant was collected and cell residues were removed; and HIV-1 P24 antigen ELISA assay was performed to identify a level of viral production (B of FIG. 7).
First, MT4 cells were inoculated at 1×10^5 cells into 48-well plates and infected with HIV-1 in an amount corresponding to 1 ng of p24. Together with the infection, the cells were treated with AVI-CO-004 at 0.5 μM, 1 μM, 2.5 μM, and 5 μM in combination with 0.25 μM of TFV and 0.2 μM of FTC fixed as basal therapeutic agents. Three days after the infection, a level of viral proliferation was identified by GFP expression using a fluorescence microscope (A of FIG. 8). Virus supernatant was collected and cell residues were removed; and HIV-1 P24 antigen ELISA assay was performed to identify a level of viral production (B of FIG. 8).

[3] = system: NL43-derived HIV-1 carrying the GFP gene; assay: Reinfectivity of viral particles produced after treatment: healthy MT4 cells reinfected (2.5 ng p24), GFP-positive cells counted by FACS after 48 hours; conditions: for Decreased reinfectivity (%): alone, reinfection of MT4 cells, FACS
Procedure: In order to identify reinfectivity of viruses produced after treatment with AVI-CO-004 alone, healthy T cells inoculated at 1×10^5 cells into 48-well plates were infected with the same amount (2.5 ng in p24) of purified viral particles produced in infection assay in Example 2. After 48 hours, a level of reinfectivity of the viral particles was identified by GFP expression using a fluorescence microscope. For quantification, GFP-positive cells re-infected with the viruses were counted using a fluorescence activated cell sorter (FACS) and indicated (A of FIG. 9), and the results were graphically represented (B of FIG. 9).
In order to compare reinfectivity of the viruses produced after treatment with AVI-CO-004 alone and after combined treatment with AVI-CO-004/AZT/3TC or AVI-CO-004/TFV/FTC, the purified viral particles produced after the combined treatment in Example 2 and a control which had not been treated with an inhibitor were quantified at the same amount (2.5 ng of p24), and used to reinfect healthy T cells.
First, healthy MT4 cells were inoculated at 1×10^5 cells into 48-well plates and infected with the same amount (2.5 ng in p24) of purified viral particles produced in infection assay in Example 2. After 48 hours, a level of reinfectivity of the viruses was identified by GFP expression using a fluorescence microscope. For quantification, GFP-positive cells re-infected with the viruses were counted using a fluorescence activated cell sorter (FACS) and indicated, and the results were graphically represented (FIGS. 10 and 11).

Compound: Nc1ccn([C@@H]2CS[C@H](CO)O2)c(=O)n1 [3TC, 2′-3′-dideoxy-3′-thiacytidine]
- Actually measured virus inhibitory value (%) ([1]; amount used 1 nM): 25%

Compound: O=C(O)CCN1C(=O)/C(=C/c2ccc(-c3ccc(Cl)cc3)o2)SC1=S [AVI-CO-004, 3-{5-[5-(4-chloro-phenyl)-furan-2-ylmethylene]-4-oxo-2-thioxo-thiazolidin-3-yl}-propionic acid]
- Actually measured virus inhibitory value (%) ([2]; amount used 0.5 μM): 14.4%
- Actually measured virus inhibitory value (%) ([2]; amount used 1 μM): 44%
- Actually measured virus inhibitory value (%) ([2]; amount used 2.5 μM): 61.2%
- Actually measured virus inhibitory value (%) ([2]; amount used 5 μM): 76.3%
- Actually measured virus inhibitory value (%) ([1]; amount used 2.5 μM): 12%
- Actually measured virus inhibitory value (%) ([1]; amount used 5 μM): 40%
- antiviral effect (amount of viruses produced) ([1]; treatment alone at increasing concentrations, p<0.05): concentration-dependent antiviral effect
- reinfectivity of viruses produced after treatment, compared with a control ([3]; treatment alone, reinfection of healthy cells): significantly decreased reinfectivity
- Decreased reinfectivity (%) ([3]; viruses produced under 0.5 μM): 35.8%
- Decreased reinfectivity (%) ([3]; viruses produced under 1 μM): 65.3%
- Decreased reinfectivity (%) ([3]; viruses produced under 2.5 μM): 97.5%
- Decreased reinfectivity (%) ([3]; viruses produced under 5 μM): 97.5%

Compound: Cc1cn([C@H]2C[C@H](N=[N+]=[N-])[C@@H](CO)O2)c(=O)[nH]c1=O [AZT, 3′-azido-3′-deoxythymidine]
- Actually measured virus inhibitory value (%) ([1]; amount used 1 nM): 9%

Compound: Nc1nc(=O)n([C@@H]2CS[C@H](CO)O2)cc1F [FTC]
- Actually measured virus inhibitory value (%) ([1]; amount used 5 nM): 19%

Compound: C[C@H](Cn1cnc2c(N)ncnc21)OCP(=O)(O)O [TFV, tenofovir]
- Actually measured virus inhibitory value (%) ([1]; amount used 0.25 μM): 30%
